Tests used:
hα1A adrenergic receptor = target: T1, hα1A adrenergic receptor (Homo sapiens, UniProt P35348); experiment: Radioligand binding, α1A adrenergic receptor ([3H]prazosin); conditions: hα1A Ki ± SD
T1 sequence (P35348 1-466): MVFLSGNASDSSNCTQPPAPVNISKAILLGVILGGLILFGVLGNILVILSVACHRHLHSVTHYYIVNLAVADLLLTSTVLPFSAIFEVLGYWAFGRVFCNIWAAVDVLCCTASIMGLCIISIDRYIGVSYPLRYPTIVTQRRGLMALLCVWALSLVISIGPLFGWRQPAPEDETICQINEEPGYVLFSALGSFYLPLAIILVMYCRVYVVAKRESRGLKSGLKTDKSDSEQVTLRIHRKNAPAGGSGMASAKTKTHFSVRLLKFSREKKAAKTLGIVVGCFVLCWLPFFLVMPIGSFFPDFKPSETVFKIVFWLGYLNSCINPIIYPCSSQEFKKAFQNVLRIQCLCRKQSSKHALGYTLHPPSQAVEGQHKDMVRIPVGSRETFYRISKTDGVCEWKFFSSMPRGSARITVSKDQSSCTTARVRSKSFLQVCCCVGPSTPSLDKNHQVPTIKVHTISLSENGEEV

human 5-HT2A receptor = target: T2, human 5-HT2A receptor (Homo sapiens, UniProt P28223); experiment: Activation potency and efficacy at the 5-HT2A receptor (FLIPR calcium, NIH-3T3 cells); assay type: cell-based; conditions: for Emax: NIH3T3, relative to 5-HT (100%), read-out: h5-HT2A activation efficacy Emax ± SD
T2 construct: expressed in transfected cells; host or cells: NIH-3T3 mouse embryonic fibroblasts
T2 sequence (P28223 whole entry): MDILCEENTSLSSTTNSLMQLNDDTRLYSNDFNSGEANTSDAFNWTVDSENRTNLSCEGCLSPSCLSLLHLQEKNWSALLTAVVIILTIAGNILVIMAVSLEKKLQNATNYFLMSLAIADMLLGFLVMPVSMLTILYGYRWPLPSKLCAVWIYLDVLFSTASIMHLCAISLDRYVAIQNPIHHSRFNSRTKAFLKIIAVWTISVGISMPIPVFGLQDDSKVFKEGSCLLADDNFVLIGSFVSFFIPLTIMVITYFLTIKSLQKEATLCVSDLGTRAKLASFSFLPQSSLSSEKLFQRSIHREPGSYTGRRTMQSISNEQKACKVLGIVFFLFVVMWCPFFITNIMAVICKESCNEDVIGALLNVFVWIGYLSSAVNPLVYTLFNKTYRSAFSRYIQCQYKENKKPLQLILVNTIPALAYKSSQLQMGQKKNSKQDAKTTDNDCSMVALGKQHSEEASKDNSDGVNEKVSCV
Protocol: The activation potency and efficacy at the 5-HT2A receptor were determined as previously described by [Luethi et al. (2018)]. In short, mouse embryonic fibroblasts (NIH-3T3 cells) stably transfected with the human 5-HT2A receptor were seeded in poly-D-lysine-coated 96 well plates at a density of 70,000 cells per 100 μL. Next, the cells were incubated in HEPES-Hank’s Balanced Salt Solution (HBSS) buffer (Gibco) for 1 h at 37 °C; the cells were then incubated with 100 μL of dye solution (fluorescence imaging plate reader [FLIPR] calcium 5 assay kit; Molecular Devices, Sunnyvale, CA, United States) per well for 1 h at 37 °C. The plate was then inserted into the FLIPR and 25 μL of the test compounds diluted in HEPES-HBSS buffer containing […] probenecid were added online. Increase of the fluorescence signal was measured and the activation potency (EC50) was calculated from the dose-response curves using nonlinear regression. The activation efficacy was calculated relative to 5-HT activity (defined as 100% activity).

rTAAR1 = rTAAR1 (Rattus norvegicus, UniProt Q923Y9); experiment: Radioligand binding, rat TAAR1 ([3H]RO5166017)
Sequence of rTAAR1 (Q923Y9 whole entry): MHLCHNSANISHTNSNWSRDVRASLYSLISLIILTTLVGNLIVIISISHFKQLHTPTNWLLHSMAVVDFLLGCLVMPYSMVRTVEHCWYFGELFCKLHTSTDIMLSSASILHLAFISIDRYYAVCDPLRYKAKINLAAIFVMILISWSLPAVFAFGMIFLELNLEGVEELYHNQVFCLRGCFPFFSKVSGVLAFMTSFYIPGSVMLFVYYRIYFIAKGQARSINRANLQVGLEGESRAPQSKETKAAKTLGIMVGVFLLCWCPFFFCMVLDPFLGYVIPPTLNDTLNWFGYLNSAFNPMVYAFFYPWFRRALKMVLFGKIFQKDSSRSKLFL

mTAAR1 = mTAAR1 (Mus musculus, UniProt Q923Y8); experiment: Radioligand binding, mouse TAAR1 ([3H]RO5166017)
Sequence of mTAAR1 (Q923Y8 whole entry): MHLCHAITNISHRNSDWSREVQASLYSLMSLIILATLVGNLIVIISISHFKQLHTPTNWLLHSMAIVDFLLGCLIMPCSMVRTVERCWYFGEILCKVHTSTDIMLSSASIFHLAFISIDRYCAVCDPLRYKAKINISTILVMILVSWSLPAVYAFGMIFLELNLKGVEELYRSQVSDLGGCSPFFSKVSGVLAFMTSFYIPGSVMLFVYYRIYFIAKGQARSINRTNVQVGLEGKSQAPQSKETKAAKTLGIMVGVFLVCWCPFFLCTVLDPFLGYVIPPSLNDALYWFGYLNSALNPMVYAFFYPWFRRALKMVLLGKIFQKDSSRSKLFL

hα2A adrenergic receptor = target: T3, hα2A adrenergic receptor (Homo sapiens, UniProt P08913); experiment: Radioligand binding, α2A adrenergic receptor ([3H]rauwolscine)
T3 sequence (P08913 1-465): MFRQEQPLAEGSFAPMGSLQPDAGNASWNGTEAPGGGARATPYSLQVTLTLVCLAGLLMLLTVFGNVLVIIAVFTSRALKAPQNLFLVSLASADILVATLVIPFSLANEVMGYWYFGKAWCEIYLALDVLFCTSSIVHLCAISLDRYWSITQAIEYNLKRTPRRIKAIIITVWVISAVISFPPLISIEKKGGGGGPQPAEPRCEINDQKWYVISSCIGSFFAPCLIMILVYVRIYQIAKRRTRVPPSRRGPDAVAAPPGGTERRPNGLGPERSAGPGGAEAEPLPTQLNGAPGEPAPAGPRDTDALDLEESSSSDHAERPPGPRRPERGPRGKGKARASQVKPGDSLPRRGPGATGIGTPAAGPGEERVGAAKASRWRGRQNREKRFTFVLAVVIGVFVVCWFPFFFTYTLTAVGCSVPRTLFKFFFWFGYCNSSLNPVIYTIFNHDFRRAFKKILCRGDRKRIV

human 5-HT2B receptor = target: T4, human 5-HT2B receptor (Homo sapiens, UniProt P41595); experiment: Activation potency and efficacy at the 5-HT2B receptor (Fluo-4 calcium, HEK 293 cells); assay type: cell-based; conditions: for Emax: HEK293, relative to 5-HT (100%), read-out: h5-HT2B activation efficacy Emax ± SD
T4 construct: expressed in transfected cells; host or cells: HEK 293 cells
T4 sequence (P41595 whole entry): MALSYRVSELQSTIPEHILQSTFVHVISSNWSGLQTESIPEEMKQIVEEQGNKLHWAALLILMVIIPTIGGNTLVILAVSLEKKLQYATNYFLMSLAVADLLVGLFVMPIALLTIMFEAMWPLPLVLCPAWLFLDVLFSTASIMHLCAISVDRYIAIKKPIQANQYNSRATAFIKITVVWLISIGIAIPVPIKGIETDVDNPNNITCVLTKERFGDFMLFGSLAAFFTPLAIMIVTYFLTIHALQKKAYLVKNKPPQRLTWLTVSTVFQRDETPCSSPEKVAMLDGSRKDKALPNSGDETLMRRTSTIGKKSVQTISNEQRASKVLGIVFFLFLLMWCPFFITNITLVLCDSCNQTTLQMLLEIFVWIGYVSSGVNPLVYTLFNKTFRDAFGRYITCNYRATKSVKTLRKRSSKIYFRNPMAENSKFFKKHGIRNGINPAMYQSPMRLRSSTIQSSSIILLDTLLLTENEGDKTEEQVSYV
Protocol: The activation potency and efficacy at the 5-HT2B receptor were determined as previously described by [Luethi et al. (2018)]. In summary, HEK 293 cells stably transfected with the human 5-HT2B receptor were seeded in poly-D-lysine-coated 96 well plates at a density of 50,000 cells per well overnight at 37 °C in high glucose Dulbecco’s modified Eagle’s medium (DMEM; Invitrogen, Zug, Switzerland) supplemented with 10% fetal calf serum (non-dialyzed and heat-inactivated), 250 mg/L Geneticin, and 100 U/mL penicillin, and 100 μg/mL streptomycin (Gibco). The growth medium was removed by snap inversion and the cells were exposed to 100 μL calcium indication Fluo-4-solution (Molecular Probes, Eugene, OR, United States) for 45 min at 31 °C. Thereafter, the Fluo-4-solution was removed once again by snap inversion and was replaced with fresh 100 μL Fluo-4-solution. Next, the cells were washed with HBSS and 20 mM HEPES using the EMBLA cell washer and then exposed to the assay buffer (100 μL per well). Afterwards, 25 μL of test compounds diluted in assay buffer were added to the plate online. Dose–response curves were determined using nonlinear regression and EC50 values were calculated. The activation efficacy was calculated relative to the 5-HT activity (defined as 100%).

hSERT = hSERT (Homo sapiens, UniProt P31645); experiment: Radioligand binding, SERT ([3H]citalopram)
Sequence of hSERT (P31645 whole entry): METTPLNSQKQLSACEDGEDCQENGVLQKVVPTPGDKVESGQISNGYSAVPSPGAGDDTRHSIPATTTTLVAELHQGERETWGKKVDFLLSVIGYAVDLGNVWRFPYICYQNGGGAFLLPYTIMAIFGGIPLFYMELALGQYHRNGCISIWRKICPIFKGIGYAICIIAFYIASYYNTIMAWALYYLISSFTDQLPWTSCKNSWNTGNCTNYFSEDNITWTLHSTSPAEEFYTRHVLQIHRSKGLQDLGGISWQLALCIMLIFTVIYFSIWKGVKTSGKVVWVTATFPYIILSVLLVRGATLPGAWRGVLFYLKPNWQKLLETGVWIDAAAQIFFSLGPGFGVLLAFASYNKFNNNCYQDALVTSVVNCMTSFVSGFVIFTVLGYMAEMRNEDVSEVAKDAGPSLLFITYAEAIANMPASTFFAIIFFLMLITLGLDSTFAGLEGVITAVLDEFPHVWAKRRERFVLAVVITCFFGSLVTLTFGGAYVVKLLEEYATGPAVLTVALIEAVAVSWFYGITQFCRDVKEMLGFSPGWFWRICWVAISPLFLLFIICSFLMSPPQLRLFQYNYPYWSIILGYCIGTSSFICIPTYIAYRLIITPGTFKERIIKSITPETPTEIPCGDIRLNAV

h5-HT1A receptor = target: T5, h5-HT1A receptor (Homo sapiens, UniProt P08908); experiment: Radioligand binding, 5-HT1A receptor ([3H]8-OH-DPAT)
T5 sequence (P08908 1-422): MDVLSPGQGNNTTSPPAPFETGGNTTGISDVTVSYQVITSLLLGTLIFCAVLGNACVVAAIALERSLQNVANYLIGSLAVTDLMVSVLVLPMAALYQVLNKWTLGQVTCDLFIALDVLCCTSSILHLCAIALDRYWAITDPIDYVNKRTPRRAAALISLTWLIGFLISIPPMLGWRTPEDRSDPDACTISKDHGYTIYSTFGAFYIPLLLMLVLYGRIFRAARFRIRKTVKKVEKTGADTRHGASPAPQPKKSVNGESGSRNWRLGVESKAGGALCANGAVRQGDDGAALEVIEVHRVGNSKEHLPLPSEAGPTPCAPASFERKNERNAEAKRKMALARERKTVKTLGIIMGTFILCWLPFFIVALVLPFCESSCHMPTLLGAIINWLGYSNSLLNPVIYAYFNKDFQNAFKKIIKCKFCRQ

SMILES	Ki (hα1A adrenergic receptor)	EC50 (human 5-HT2A receptor)	Emax (human 5-HT2A receptor)	Ki (rTAAR1)	Ki (mTAAR1)	Ki (hα2A adrenergic receptor)	EC50 (human 5-HT2B receptor)	Emax (human 5-HT2B receptor)	Ki (hSERT; hSERT Ki ± SD, [3H]citalopram)	Ki (h5-HT1A receptor)	fold increase in 5-HT2A activation potency over non-fluorinated counterpart Ψ-2C-O-2 (human 5-HT2A receptor)	Ki (hSERT; SERT Ki, no binding observed)	type of agonism at the 5-HT2A receptor (human 5-HT2A receptor)	fold difference in 5-HT2B activation potency, amphetamine vs phenethylamine counterpart (human 5-HT2B receptor; Ψ-MEM vs Ψ-2C-O-2)
COc1cc(OC)c(CC(C)N)c(OC)c1 (stereo not drawn) [TMA-6, 2,4,6-trimethoxyamphetamine]	> 8800 nM	70 ± 32 nM	61 ± 12%	180 ± 20 nM	850 ± 20 nM	3100 nM	150 ± 20 nM	59 ± 3%	> 7500 nM	> 5600 nM				
COc1cc(OC)c(CCN)c(OC)c1 [Ψ-2C-O-1, 2,4,6-trimethoxyphenethylamine]	> 8800 nM	110 ± 20 nM	84 ± 13%	57 ± 12 nM	590 ± 20 nM	780 ± 70 nM	330 ± 250 nM	22 ± 8%	> 7500 nM	960 ± 90 nM				
CCOc1cc(OC)c(CCN)c(OC)c1 [Ψ-2C-O-2, 2,6-dimethoxy-4-ethoxyphenethylamine]	3300 nM	99 ± 8 nM	53 ± 4%		230 ± 20 nM	670 ± 60 nM	2100 nM	27 ± 8%	> 7500 nM	710 ± 30 nM				
C=C(C)COc1cc(OC)c(CCN)c(OC)c1 [Ψ-2C-O-3, 2,6-dimethoxy-4-methallyloxyphenethylamine]	990 ± 20 nM	200 ± 20 nM	23 ± 10%	6.4 ± 1.1 nM	120 ± 20 nM	280 ± 30 nM	310 ± 240 nM	17 ± 4%	> 7500 nM	1010 nM				
C=CCOc1cc(OC)c(CCN)c(OC)c1 [Ψ-2C-O-16, 4-allyloxy-2,6-dimethoxyphenethylamine]	670 ± 60 nM	39 ± 19 nM	49 ± 20%	12 nM	150 ± 20 nM	310 ± 20 nM	91 ± 31 nM	27 ± 8%	> 7500 nM	910 ± 60 nM				
COc1cc(OCCF)cc(OC)c1CCN [Ψ-2C-O-21, 2,6-dimethoxy-4-(2-fluoroethoxy)phenethylamine]	4600 nM	32 ± 2 nM	55 ± 14%	19 ± 1 nM	320 ± 30 nM		> 10000 nM		> 7500 nM	1600 nM	3 fold			
COc1cc(OCC(F)F)cc(OC)c1CCN [Ψ-2C-O-21.5, 4-(2,2-difluoroethoxy)-2,6-dimethoxyphenethylamine]	2000 nM	740 ± 80 nM	31 ± 5%	14 ± 3 nM	220 ± 40 nM	1000 nM	> 10000 nM		> 7500 nM	1300 nM				
COc1cc(OCC(F)(F)F)cc(OC)c1CCN [Ψ-2C-O-22, 2,6-dimethoxy-4-(2,2,2-trifluoroethoxy)phenethylamine]	2000 nM	3400 nM	41 ± 8%	21 ± 2 nM	210 ± 40 nM	1500 nM	> 10000 nM		> 7500 nM	2400 nM				
COc1cc(OCc2ccccc2)cc(OC)c1CCN [Ψ-2C-O-27, 4-benzyloxy-2,6-dimethoxyphenethylamine]	3600 nM	410 ± 160 nM	42 ± 8%	3.1 ± 0.2 nM	610 ± 6 nM	410 ± 20 nM	> 10000 nM		> 7500 nM	2100 nM		< 7500 nM		
COc1cc(OC(F)F)cc(OC)c1CCN [Ψ-2C-O-35, 4-(2,2-difluoromethoxy)-2,6-dimethoxyphenethylamine]	2100 nM	260 ± 200 nM	16 ± 2%	51 ± 4 nM	680 ± 120 nM	450 ± 70 nM	300 ± 230 nM	20 ± 13%	> 7500 nM	4440 nM				
COc1cc(OC(F)F)cc(OC)c1CC(C)N (stereo not drawn) [Ψ-DODFMO, 4-(2,2-difluoromethoxy)-2,6-dimethoxyamphetamine]	5900 nM	300 ± 100 nM	54 ± 4%	140 ± 40 nM	860 ± 40 nM	2300 nM	160 ± 50 nM	58 ± 23%	> 7500 nM	5100 nM				
C=CCOc1cc(OC)c(CC(C)N)c(OC)c1 (stereo not drawn) [Ψ-MALM, 4-allyloxy-2,6-dimethoxyamphetamine]	1400 nM	180 ± 70 nM	66 ± 6%	58 ± 11 nM	270 ± 50 nM	1800 nM	55 ± 24 nM	69 ± 19%	> 7500 nM	> 5600 nM			partial agonists	
COc1cc(OCc2ccccc2)cc(OC)c1CC(C)N (stereo not drawn) [Ψ-MBnM, 4-benzyloxy-2,6-dimethoxyamphetamine]	5800 nM	430 ± 150 nM	39 ± 6%	6.1 ± 0.7 nM	190 ± 10 nM	2000 nM	> 10000 nM		> 7500 nM	> 5600 nM		< 7500 nM		
COc1cc(OCC(F)F)cc(OC)c1CC(C)N (stereo not drawn) [Ψ-MDFEM, 4-(2,2-difluoroethoxy)-2,6-dimethoxyamphetamine]	3900 nM	1100 nM	34 ± 7%	66 ± 13 nM	500 ± 70 nM	3300 nM	> 10000 nM		> 7500 nM	> 5600 nM				
CCOc1cc(OC)c(CC(C)N)c(OC)c1 (stereo not drawn) [Ψ-MEM, 2,6-dimethoxy-4-ethoxyamphetamine]	6010 nM	650 ± 210 nM	54 ± 5%	110 ± 10 nM	400 ± 20 nM	2200 nM	260 ± 160 nM	28 ± 11%	> 7500 nM	> 5600 nM				8 fold

Source: article PMC12675387, “Receptor interaction profiles of 4-alkoxy-2,6-dimethoxyphenethylamines (Ψ derivatives) and related amphetamines” (Frontiers in Pharmacology, 2025)
